Data as given in patent publication EP0356128A2, “3-(Aminopropyl)methyl phosphinic acid as a therapeutic agent” (SMITH KLINE & FRENCH LABORATORIES LIMITED, priority 1988, dated 1990).

What was measured:
[1] = biological target: GABAA receptor; test: [3H]-GABA radioligand binding assay, GABAA binding (in the presence of baclofen); conditions: inhibition of specific GABAA binding to rat synaptic membranes; [³H]-GABA 10 nM, baclofen 100 µM; read-out: IC₅₀ (nM) GABAA
Description: Male rats were killed by decapitation.
The final tissue was resuspended in fresh buffer for assay and transferred in 0.8 ml aliquots to microtubes (0.5 - 1.0 mg protein.tube).

[2] = biological target: GABAB receptor (Rattus norvegicus, UniProt Q9Z0U4); test: biochemical
Sequence of GABAB receptor (Q9Z0U4 17-960 limits assumed): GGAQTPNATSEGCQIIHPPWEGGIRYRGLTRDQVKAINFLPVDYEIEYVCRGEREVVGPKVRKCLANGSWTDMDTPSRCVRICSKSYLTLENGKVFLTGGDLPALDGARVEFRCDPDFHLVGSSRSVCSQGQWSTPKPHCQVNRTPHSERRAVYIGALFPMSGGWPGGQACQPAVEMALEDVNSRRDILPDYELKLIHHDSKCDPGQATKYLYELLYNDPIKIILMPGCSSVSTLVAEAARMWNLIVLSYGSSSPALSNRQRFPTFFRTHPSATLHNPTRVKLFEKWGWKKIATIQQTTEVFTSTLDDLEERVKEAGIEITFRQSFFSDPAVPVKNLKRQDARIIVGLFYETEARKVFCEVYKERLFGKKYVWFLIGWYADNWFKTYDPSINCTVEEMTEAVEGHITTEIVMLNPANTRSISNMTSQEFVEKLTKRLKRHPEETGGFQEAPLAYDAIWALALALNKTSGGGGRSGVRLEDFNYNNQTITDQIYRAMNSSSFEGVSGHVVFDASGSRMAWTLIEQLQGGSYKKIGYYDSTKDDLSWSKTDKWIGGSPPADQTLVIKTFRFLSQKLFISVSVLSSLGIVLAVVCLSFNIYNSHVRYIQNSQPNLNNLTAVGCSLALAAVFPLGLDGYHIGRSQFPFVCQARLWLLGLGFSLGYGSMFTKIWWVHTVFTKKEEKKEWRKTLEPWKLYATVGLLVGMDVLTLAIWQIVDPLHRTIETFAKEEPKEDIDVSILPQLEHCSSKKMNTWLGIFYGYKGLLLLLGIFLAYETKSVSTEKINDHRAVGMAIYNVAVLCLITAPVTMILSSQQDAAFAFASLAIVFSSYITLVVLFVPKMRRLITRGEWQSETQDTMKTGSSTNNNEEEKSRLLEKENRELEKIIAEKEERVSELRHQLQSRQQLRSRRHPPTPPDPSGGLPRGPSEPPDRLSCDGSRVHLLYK
Sequence of GABAB receptor (O88871 41-940 partner): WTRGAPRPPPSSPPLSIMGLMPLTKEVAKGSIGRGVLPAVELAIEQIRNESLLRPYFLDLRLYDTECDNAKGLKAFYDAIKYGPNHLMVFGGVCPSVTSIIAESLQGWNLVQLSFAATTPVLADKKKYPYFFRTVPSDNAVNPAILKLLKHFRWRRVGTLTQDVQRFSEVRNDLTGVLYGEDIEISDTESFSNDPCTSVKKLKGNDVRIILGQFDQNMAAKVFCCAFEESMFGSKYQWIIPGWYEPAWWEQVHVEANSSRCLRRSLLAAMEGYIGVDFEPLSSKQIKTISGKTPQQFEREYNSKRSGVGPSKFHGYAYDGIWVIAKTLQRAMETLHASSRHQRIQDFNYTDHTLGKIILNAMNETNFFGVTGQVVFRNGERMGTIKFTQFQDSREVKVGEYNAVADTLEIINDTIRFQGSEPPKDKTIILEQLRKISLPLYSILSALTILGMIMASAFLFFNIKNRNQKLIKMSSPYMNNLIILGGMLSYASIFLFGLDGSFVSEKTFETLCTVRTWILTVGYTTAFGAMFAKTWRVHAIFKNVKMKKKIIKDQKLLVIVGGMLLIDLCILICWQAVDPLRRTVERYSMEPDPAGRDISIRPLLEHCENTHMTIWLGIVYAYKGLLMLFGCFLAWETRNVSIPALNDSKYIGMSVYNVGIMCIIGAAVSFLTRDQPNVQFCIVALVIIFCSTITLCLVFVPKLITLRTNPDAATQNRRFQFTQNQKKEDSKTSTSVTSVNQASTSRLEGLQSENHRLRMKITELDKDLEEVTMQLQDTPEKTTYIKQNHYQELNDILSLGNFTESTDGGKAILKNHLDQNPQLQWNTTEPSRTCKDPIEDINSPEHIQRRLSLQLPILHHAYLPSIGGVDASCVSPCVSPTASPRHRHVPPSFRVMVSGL
Description: Male rats were killed by decapitation. […] The homogenate was centrifuged at 1000 g to give a crude nuclear pellet (P₁) and a supernatant fraction enriched in myelin, synaptosomes and mitochrondria. The supernatant was collected and recentrifuged for 20 minutes at 20,000 g. The resulting pellet (P₂) was lysed by resuspension in distilled water and the mixture centrifuged for 20 minutes at 8,000 g. The supernatant was used to rinse off the upper layer of the pellet with the aid of a Pasteur pipette. The combined suspension was centrifuged for 20 minutes at 48,000 g. The final crude synaptic membranes were washed twice with distilled water and were either resuspended in buffer for further washing prior to use as fresh tissue or were stored frozen at -20°C. […]
[³H]-GABA (10 nM final concentrations 65 Ci/mmol) was added to each tube with or without varying concentrations of unlabelled test compound (final volume 1.0 ml). […] GABAB binding was determined by using ³H-GABA in the presence of isoguvacine (40 µM), a GABAA receptor ligand. […]
Non-specific binding was subtracted from the total amount of radioactivity bound in the absence of any drug to yield the amount of ligand specifically bound. The amount of radioactivity specifically bound at a given concentration of non-radioactive drug was expressed as a percentage of the total ligand specifically bound.

| Compound | IC50 [1] [nM] | IC50 [2] [nM] |
| --- | --- | --- |
| CP(=O)(O)CCCN [Example 1, 3-(aminopropyl)methyl phosphinic acid] | 23000 |  |
| NCCC[PH](=O)O [3-aminopropyl phosphinic acid] | 420 | 1 |
